# Experiment: in vitro
# Conditions: human, hela cells, % viability
row,Compound,"viability at 28.5 h, 10 µM"
1,CCc1ccc(OCC(O)Cn2nnc(-c3ccc(CN4CCC(C)CC4)cc3)n2)cc1 (stereo not shown) [CBK161437T],111%
2,Brc1cnn(-c2ccccc2)c1 [CBK027172],87.6%
3,O=C(c1cn(-c2cc(Nc3ccccc3)ncn2)cn1)N1CCOCC1 [CBK288610],103%
4,CCCc1[nH]nc(O)c1Cc1cccc(C)c1 [CBK075035],91.3%
5,Nc1cccc(-c2nc(-c3cncnc3)cnc2N)c1 [CBK063907],102%
6,CC(C)(C)C(C#N)C(Oc1ccc(Cl)cc1)n1cncn1 (stereo not shown) [CBK023570],90.3%
7,Cc1sc2nc(SCC(=O)Nc3ccc(S(N)(=O)=O)cc3)n(-c3ccccc3)c(=O)c2c1C [CBK266600],108%
8,O=C1NC(=O)C2(CCN(Cc3ccccc3)CC2)N1 [CBK005078],86.8%
9,CC(=O)N1CCC2(CC1)CC(O)c1cc(C)c(C)cc1O2 (stereo not shown) [CBK282826],107%
10,COc1ccc(/C=C/C(=O)C2CC2)c(C(=O)O)c1OC [CBK286639],97%
11,Cc1cc2c(s1)c1cnn(Cc3ccccn3)c(=O)c1n2C [CBK284227],65.4%
12,Cn1cccc1CN1C[C@H]2CC[C@]3(NC(=O)c4ccccc4N3)[C@H]2C1 [CBK284443],97.7%
13,CN(/N=C/c1cc(Br)cs1)c1ccc(Cl)nn1 [CBK028729],94.1%
14,Cc1c(NCc2ccccn2)cccc1C(=O)O [CBK269651],86.9%
15,CCN(CC)C(=O)C1CCCN(C(=O)NCc2ccc(Cl)c(Cl)c2)C1 (stereo not shown) [CBK156119],98.8%
16,Cc1nc(C(F)(F)F)ccc1NC(=O)CSCC(=O)O [CBK056975],93.3%
17,C=CCC1(CC=C)CCN1C(=O)c1cc2c([nH]c1=O)CCCCC2 [CBK282524],103%
18,CCOc1ccc(S(=O)(=O)NCCCN2CCOCC2)c2ccccc12 [CBK018421],89.8%
19,O=C1NC(=O)c2cc(S(=O)(=O)NCCCO)cc3cccc1c23 [CBK267602],110%
20,Cn1ccnc1C(NC(=O)c1ccccn1)c1ccc(F)c(F)c1 (stereo not shown) [CBK283783],91.6%
21,O=C(CSc1nc[nH]n1)c1ccc2c(c1)OCCO2 [CBK267360],101%
22,OCCc1ccc(Oc2ncc(C(F)(F)F)cc2Cl)cc1 [CBK161643],94.6%
23,O=C(c1cncnc1)N1CCC2(CCN(Cc3ccccc3)CC2)C1 [CBK136782],101%

row,Compound,"viability at 28.5 h, 10 µM"
1,CC1(C(=O)O)CCC(C(=O)O)C1(C)C (stereo not shown) [CBK261830],96.1%
2,CCN1CC(C(=O)N2CCN(C(=O)c3ccccc3F)CC2)CC1=O (stereo not shown) [CBK282937],92.3%
3,CS(=O)(=O)N1CCN(c2ccccc2NC(=O)CSc2ccc(Cl)cc2)CC1 [CBK267607],83.7%
4,CN1CCN(S(=O)(=O)c2ccc3oc(=O)ccc3c2)CC1 [CBK062431],118%
5,O=C(NC(c1cccnc1)c1ccc2c(c1)OCO2)C1CCN(CCc2cccs2)CC1 (stereo not shown) [CBK148503],105%
6,Cc1cc(N2CCN(c3ccccc3)CC2)nc(-c2ccccc2O)n1 [CBK116405],92.1%
7,COc1cc(OC)cc(C(=O)Nc2ccc(C(=O)c3ccccc3)cc2)c1 [CBK098732],106%
8,CCOC(=O)Cc1csc(SC(C)C(=O)N2CCNC2=O)n1 (stereo not shown) [CBK304551],106%
9,Cc1ccc(-c2noc(CNC(=O)CSc3ccccc3)n2)cc1 [CBK270199],91.5%
10,CCn1c2ccccc2c2cc(C(N)=O)c(N)nc21 [CBK019787],85.2%
11,OCCN1CCN(Cc2cc(Br)cs2)CC1 [CBK261758],96%
12,O=C(Nc1cccc(C(=O)O)c1)Nc1ccc(Cl)c(Cl)c1 [CBK155455G],88.7%
13,O=C(Cn1nnc(-c2ccccc2)n1)Nc1ccccc1C(=O)O [CBK264358],103%
14,O=C1COc2ccccc2C/C=C/CC2(CCN(C(=O)c3n[nH]c4c3CCC4)CC2)CN1 [CBK292019],111%
15,C#CCN(C1CCc2ccccc21)S(=O)(=O)c1cc(C(=O)NC)n(C)c1 (stereo not shown) [CBK306235],91.8%
16,O=C(O)CC1C(=O)NCCN1CCCc1ccccc1 (stereo not shown) [CBK287176],90.2%
17,CC(C)COc1ccccc1C(=O)NCCC(=O)O [CBK033507],102%
18,COc1ccc(N(CC(=O)O)S(=O)(=O)c2ccccc2[N+](=O)[O-])c(OC)c1 [CBK262729],92.6%
19,O=C(CN1CCOCC1)N1CCC(F)CC1 [CBK200383],83.5%
20,Cc1nc(C2CCN(Cc3cccc(F)c3)CC2)ncc1C(=O)Nc1ccc(F)cc1 [CBK285668],107%
21,COc1ccc(NC(=O)CSc2ncnc3ccccc23)cc1 [CBK270215],94%
22,Cc1ccc(NC(=O)c2cc(C)[nH]n2)c(C)n1 [CBK200387],83.8%
23,COC(=O)[C@@H](C)NC(=O)[C@@H]1CN(C(=O)c2cccc(F)c2)CCN1C(=O)C1CCCCC1 [CBK289621],87.4%

row,Compound,"viability at 28.5 h, 10 µM"
1,CCNC(=O)NCc1ccc(F)cc1 [CBK115581],84.9%
2,Nc1nonc1-n1nnc(C(=O)N/N=C/c2nc3ccccc3[nH]2)c1-c1ccccc1 [CBK262815],93.8%
3,O=C(C1CCCO1)N1CCC(c2ccc(F)cc2)CC1 (stereo not shown) [CBK283484],81.4%
4,C=CCNC(=O)Cn1c(-c2ccc(OC)cc2)cc2cccnc21 [CBK285363],83.2%
5,CS(=O)(=O)Nc1nccnc1OC1CCN(CCCn2c(=O)[nH]c3ccccc32)CC1 [CBK084277],91.8%
6,N=c1c2c3c(sc2ncn1CCCN1CCOCC1)CCCC3 [CBK268323],94.6%
7,Cc1nc(-c2ccccc2)ccc1C(=O)Nc1nc(CC(N)=O)cs1 [CBK295195],96.8%
8,Cc1ccn(-c2ccc(N3CCC4(CCOC4)C3)nn2)n1 (stereo not shown) [CBK306302],87.8%
9,COC1C(O)C(CO)OC1n1cc(F)c(SC)nc1=O (stereo not shown) [CBK201267],106%
10,Cc1ccc2c(c1)C1(CCN(CC3CC3)CC1)NC(=O)C2 [CBK040217],94.8%
11,CCNC(=O)Nc1cc2ccccc2c(-c2cccnc2)n1 [CBK073787],82.3%
12,CCc1nn(CC(=O)N2CCCC2)c(=O)c2cc3ccsc3n12 [CBK284120],84.2%
13,O=C1NC2CCCCC2NC1CC(=O)N1CCN(C(c2ccccc2)c2ccccc2)CC1 (stereo not shown) [CBK269201],88.7%
14,O=C(CCc1ccco1)N1CCCC1c1nc2ccccc2[nH]1 (stereo not shown) [CBK283767],104%
15,CCN(CC)C(=O)Cn1nc(C)n2c(cc3sccc32)c1=O [CBK284044],88.7%
16,CC(Oc1ccccc1)C(=O)N1CCN(C/C=C/c2ccccc2)CC1 (stereo not shown) [CBK269050],98%
17,CC(Sc1ccccc1)C(=O)NCCCN1CCOCC1 (stereo not shown) [CBK269214],106%
18,Cc1cc(C)nc(-n2[nH]c(N)cc2=O)n1 [CBK270164],85.7%
19,CCOc1ccc(NC(=O)N(C)Cc2noc(CC(C)C)n2)cc1C#N [CBK307089],85.2%
20,O=C(Nc1cccc2ccccc12)N1CCC(n2c(=O)[nH]c3ccccc32)CC1 [CBK149858],85%
21,C/C(=N\N)c1ccc2[nH]c3c(c2c1)CCC/C3=N\N [CBK261812],81.2%
22,CC(=O)Nc1cccc(-c2ccc(Nc3cccc(N(C)C)c3)nc2)c1 [CBK036829],97.9%
23,O=C(NCCNc1cnccn1)c1cc(Br)ccc1F [CBK253480],110%

row,Compound,"viability at 28.5 h, 10 µM"
1,O=C(NC(C(=O)O)C12CC3CC(CC(C3)C1)C2)c1ccc([N+](=O)[O-])cc1 (stereo not shown) [CBK261405],94.7%
2,COc1cc(NC(=O)c2c(C)[nH]c(=O)[nH]c2=S)cc(C(F)(F)F)c1 [CBK115495],92.3%
3,COc1ccccc1/C=C/C1=NN(c2ccc(F)cc2)C(c2ccccc2OC)C1 (stereo not shown) [CBK262303],81.1%
4,CN(C(=O)N1CCC(C(=O)NC(c2ccccc2)c2ccco2)CC1)c1ccccc1 (stereo not shown) [CBK059877],89%
5,CCCCc1ccc(NC(=O)CSc2nnc(N)s2)c(C)c1 [CBK057659],91.9%
6,Cc1cccc(Nc2ccc(C3CCCCN3Cc3ccc4nccnc4c3)cn2)n1 (stereo not shown) [CBK285536],76.2%
7,Cc1cc(C)c2c(N)nc(N)nc2n1 [CBK025968],105%
8,Cc1ccc([N+](=O)[O-])cc1NC(=O)C1Cc2ccccc2CN1C(=O)OCc1ccccc1 (stereo not shown) [CBK262463],100%
9,Cc1ccc(CNC(=O)c2ccc(-n3ccnc3)c(-n3cccc3)c2)o1 [CBK284812],99.2%
10,C[C@]12C(=O)c3ccccc3NC(=O)C1[C@H]2C(=O)N1CCCCC1 (stereo partly shown) [CBK285281],92%
11,O=C(CN1CCN(c2ccccn2)CC1)N1c2ccccc2Sc2ccc(C(F)(F)F)cc21 [CBK268835G],98.8%
12,CCNC(=O)Nc1ccc([C@@H](O)[C@H]2COCC(=O)N2CC)cc1 [CBK289696],93.5%
13,COc1ccccc1N1CCN(C(=O)C2CC2C)CC1 (stereo not shown) [CBK091496],108%
14,Cc1cc(/C=N/NC(=O)c2ccc(CN3CCOCC3)cc2)c(C)n1-c1ccccc1 [CBK263329],100%
15,CCC(CO)Nc1nccnc1-c1ccoc1 (stereo not shown) [CBK088756],100%
16,Cc1cc(=O)n(CC(=O)NC(C)c2ccccn2)c2ccccc12 (stereo not shown) [CBK281820],96.3%
17,O=C(Cc1cccc2ccccc12)NC(NC(=S)Nc1ccccc1Br)C(Cl)(Cl)Cl (stereo not shown) [CBK261094],106%
18,NC(=O)c1ccc(C(=O)OCc2ccc(-c3ccccc3)cc2)cc1 [CBK297736],95.7%
19,COc1ccc(CCNC(=O)c2n[nH]c(=O)c3ccccc23)cc1OC [CBK270160],87.6%
20,COc1cnc(C(=O)NCCc2ccc(S(=O)(=O)NC(=O)NC3CCCCC3)cc2)cn1 [CBK011761],104%
21,COc1ccc(S(=O)(=O)Nc2ccccc2C(=O)O)cc1C(=O)O [CBK264084],99.9%
22,O=C(COc1ccc2ccccc2c1)N1CCN(S(=O)(=O)c2ccc([N+](=O)[O-])cc2)CC1 [CBK264277],98%

# — PMC12040169 (PLOS Biology, 2025)
